{"source": "patent US20220177476A1", "about": "“Crystal Forms of (S)-4-(8-amino-3-(1-(but-2-ynoyl)-pyrrolidin-2-yl)imidazo[1,5-a]pyrazin-1-yl)-n-(pyridin-2-yl)benzamide” (Acerta Pharma B.V., priority 2015, published 2022)", "key": {"[1]": {"test": "Relative stability of solid forms (water activity, suspension equilibration, storage)", "type": "physicochemical", "conditions": "room temperature", "description": "Critical water activity is a measure of the relative thermodynamic stability of Form I in comparison to the trihydrate Form II. […] Suspension equilibration experiments in ethanol-water mixtures, each having a different water activity, affirmed this conclusion. Water activities included in the experiments were maintained at: about 0.35 (ethanol-water ratio of 95:5, PP502-P32), about 0.53 (ethanol-water ratio of 9:1, PP502-P33) and about 0.77 (ethanol-water ratio of 7:3, PP502-P34).\nBecause the DVS results of Form II indicate reversible moisture sorption-desorption behavior (see above), tests were performed to confirm that storage of the dehydrated Form II sample (i.e., Form IV) at about 60% RH would again lead to the trihydrate form (Form II). […]"}, "[2]": {"test": "Aqueous solubility after equilibrating at 25° C. for three days (HPLC)", "type": "physicochemical", "conditions": "water, equilibrated at 25° C. for three days, HPLC of filtered solution", "protocol": "Finally, Form II was tested with respect to solubilities in various water-solvent mixtures and non-aqueous solvents. […] High-performance liquid chromatography (HPLC) was used to determine the concentration of Form II in the filtered solution at approximately 14 μg/mL, which translates into a critical water activity (aw) of about 0.59."}, "[3]": {"test": "Dynamic vapor sorption (DVS)", "type": "physicochemical", "conditions": "DVS", "protocol": "A gravimetric vapor sorption study was run using a standard procedure. Samples were run using a dynamic vapor sorption (DVS) analyzer. Sample sizes were approximately 10 mg. A moisture adsorption-desorption isotherm was performed as outlined below."}, "[4]": {"test": "Plasma exposure after single oral administration in fasted beagle dogs", "type": "in vivo", "conditions": "nine fasted beagle dogs, single oral administration of 6 mg/kg, oral capsule", "protocol": "The plasma exposure of Forms I and II of the free base of Formula (1) were compared in nine fasted beagle dogs after a single oral administration of 6 mg/kg of either form using batches with a similar particle size distribution. The experiment was performed in 5 weekly phases, with the Form II phase last. […] There was a good in vitro in vivo correlation for the dissolution rates of Form 1 and Form II, and the performance of each form of Formula (1) when delivered by oral capsule to dogs."}, "[5]": {"test": "Intrinsic dissolution rate (paddle over stationary disc)", "type": "physicochemical", "protocol": "The intrinsic dissolution rate (IDR) was measured for Forms I and II of the free base of Formula (1). IDR was measured using a paddle over stationary disc equipped dissolution apparatus with concentration determined using liquid chromatographic analysis against a standard. […] Form I has an IDR of 6.8 mg/cm^2/min in simulated gastric fluid (SGF) (pH 1.2) and an IDR of 0.44 mg/cm^2/min in pH 2.5 HCl/NaCl buffer. Form II has an IDR of 5.4 mg/cm^2/min in SGF and an IDR of 0.35 mg/cm^2/min in pH 2.5 HCl/NaCl buffer."}, "[6]": {"test": "pKa by ultraviolet (UV) spectrometric titration", "type": "physicochemical", "conditions": "for pKa: aqueous solution", "protocol": "The pKa values for Formula (1) free base were determined and used to create the speciation plot shown in FIG. 47 to illustrate the species present as the Formula (1) passes through the gastrointestinal tract. The sample pKa values were determined using an ultraviolet (UV) spectrometric technique. The sample was initially titrated in a fast-UV triple titration between pH 2-12 at concentrations of 31-19 μM, under aqueous conditions. Three pKa values, with average values of ˜3.6, ˜5.8 and ˜12.0, were determined. The sample was subsequently titrated in six titrations, under aqueous conditions over a total range of pH 1.5-12.5 at concentrations of 30-18 μM."}, "[7]": {"test": "logP by potentiometric (pH-metric) technique, octanol/water", "type": "physicochemical", "conditions": "25° C., 0.15 M KCl", "protocol": "The logP of Formula (1) free base was determined using the potentiometric (pH-metric) technique. The sample was titrated in various ratios of octanol/water from pH 1.9-12.1 at concentrations of 1.1-0.5 mM at 25° C. in an ionic environment of 0.15 M KCl. The potentiometric data collected were used to calculate the logP of the neutral (2.03±0.01) and the cationic (−0.31±0.06) species."}, "[8]": {"test": "Aqueous solubility of salts after three hours equilibration without pH adjustment", "type": "physicochemical", "conditions": "thermodynamic from solid, water", "protocol": "Characterization of fumarate salt, maleate salt, phosphate salt and L-tartrate salt was conducted using ^1H NMR spectroscopy, TG-FTIR, DSC, dynamic vapor sorption, optical microscopy, high-performance liquid chromatography (HPLC) purity, laser diffraction, approximate bulk and tapped density, and aqueous solubility analytical techniques."}, "[9]": {"test": "Aqueous solubility of Formula (1) free base as a function of pH", "type": "physicochemical", "description": "The aqueous solubility of Formula (1) free base was examined as a function of pH."}, "[10]": {"test": "Water content by Karl Fischer titration", "type": "physicochemical"}, "[11]": {"conditions": "six titrations, pH 1.5-12.5, 30-18 μM, aqueous"}}, "note": "Where two headings read alike, the source gives them in different places."}
{"smiles": "CC#CC(=O)N1CCC[C@H]1c1nc(-c2ccc(C(=O)Nc3ccccn3)cc2)c2c(N)nccn12", "note": "[Form II, (S)-4-(8-amino-3-(1-(but-2-ynoyl)pyrrolidin-2-yl)imidazo[1,5-α]pyrazin-1-yl)-N-(pyridin-2-yl)benzamide]", "values": [{"measurement": "critical water activity (aw)", "setting": "[1]; Form I versus trihydrate Form II, from aqueous solubilities", "result": "about 0.59"}, {"measurement": "relative thermodynamic stability of Form I and Form II", "setting": "[1]; depending on water activity", "result": "above this value Form II is more stable"}, {"measurement": "aqueous solubility", "setting": "[2]", "result": "approximately 14 μg/mL"}, {"measurement": "maximum water content (saturation) at about 95% RH", "setting": "[3]", "result": "about 10.4%"}, {"measurement": "total weight gain observed between 0% RH and 80% RH", "setting": "[3]", "result": "about 10%"}, {"measurement": "hygroscopicity according to the European Pharmacopoeia (EP) classification", "setting": "[3]; weight increase at 80% RH", "result": "hygroscopic (hygroscopic: ≥2% and <15%)"}, {"measurement": "Cmax (maximum concentration)", "setting": "[4]", "result": "lower Cmax (maximum concentration) than Form I in all dogs"}, {"measurement": "area under the plasma drug concentration-time curve (AUC)", "setting": "[4]", "result": "lower AUC than Form I in all dogs"}, {"measurement": "intrinsic dissolution rate (IDR)", "setting": "[5]; pH 2.5 HCl/NaCl buffer", "result": 0.35, "unit": "mg/cm^2/min"}, {"measurement": "intrinsic dissolution rate (IDR)", "setting": "[5]; simulated gastric fluid (SGF) (pH 1.2)", "result": 5.4, "unit": "mg/cm^2/min"}]}
{"smiles": "CC#CC(=O)N1CCC[C@H]1c1nc(-c2ccc(C(=O)Nc3ccccn3)cc2)c2c(N)nccn12", "note": "[Formula (1), (S)-4-(8-amino-3-(1-(but-2-ynoyl)pyrrolidin-2-yl)imidazo[1,5-α]pyrazin-1-yl)-N-(pyridin-2-yl)benzamide]", "values": [{"measurement": "pKa", "setting": "[6]; free base, Table 9, read-out: pKa", "result": "~5.7"}, {"measurement": "pKa", "setting": "[6]; pH 1.5, six titrations, pH 1.5-12.5, 30-18 μM, aqueous, read-out: pKa, average value (third)", "result": "12.12 ± 0.03"}, {"measurement": "pKa", "setting": "[6]; pH 2, fast-UV triple titration, pH 2-12, 31-19 μM, aqueous, read-out: pKa, average value (first)", "result": "~3.6"}, {"measurement": "pKa", "setting": "[6]; pH 2, fast-UV triple titration, pH 2-12, 31-19 μM, aqueous, read-out: pKa, average value (second)", "result": "~5.8"}, {"measurement": "pKa", "setting": "[6]; pH 2, fast-UV triple titration, pH 2-12, 31-19 μM, aqueous, read-out: pKa, average value (third)", "result": "~12"}, {"measurement": "pKa, average value (first)", "setting": "[6]; [11]", "result": "3.54±0.01"}, {"measurement": "pKa, average value (second)", "setting": "[6]; [11]", "result": "5.77±0.01"}, {"measurement": "logP of the neutral species", "setting": "[7]", "result": "2.03±0.01"}, {"measurement": "logP", "setting": "[7]; read-out: logP of the cationic species", "result": "-0.31 ± 0.06"}, {"measurement": "solubility at 3 h", "setting": "[8]", "result": "< 1000", "unit": "µg/mL"}, {"measurement": "solubility", "setting": "[9]; aqueous HCl solution, pH 1, simulated gastric fluid, thermodynamic from solid, HCl solution having a pH of about 1, read-out: solubility in HCl solution", "result": "≥ 150000", "unit": "µg/mL"}, {"measurement": "solubility", "setting": "[9]; aqueous buffer solution, pH 5, aqueous buffer, thermodynamic from solid, effective pH at the end of the test 5.0, read-out: Solubility", "result": 690, "unit": "µg/mL"}, {"measurement": "solubility", "setting": "[9]; aqueous buffer solution, pH 7.3, aqueous buffer, thermodynamic from solid, effective pH at the end of the test 7.3, read-out: Solubility", "result": 49, "unit": "µg/mL"}, {"measurement": "solubility", "setting": "[9]; aqueous buffer solution, pH 8.9, aqueous buffer, thermodynamic from solid, effective pH at the end of the test 8.9, read-out: Solubility", "result": 51, "unit": "µg/mL"}, {"measurement": "solubility", "setting": "[9]; aqueous buffer solutions, aqueous buffer, thermodynamic from solid, pH 6.7 and greater, read-out: aqueous solubility, constant level", "result": "~50", "unit": "µg/mL"}, {"measurement": "solubility", "setting": "[9]; effective pH at the end of the test 6.7", "result": 56, "unit": "µg/mL"}, {"measurement": "aqueous solubility, constant level", "setting": "[9]; pH 6.7 and greater", "result": "about 50 μg/mL"}]}
{"smiles": "CC#CC(=O)N1CCC[C@H]1c1nc(-c2ccc(C(=O)Nc3ccccn3)cc2)c2c(N)nccn12.O=S(=O)(O)O", "note": "[sulfate salt, (S)-4-(8-amino-3-(1-(but-2-ynoyl)pyrrolidin-2-yl)imidazo[1,5-α]pyrazin-1-yl)-N-(pyridin-2-yl)benzamide sulfate]", "values": [{"measurement": "water content (% found, experimental)", "setting": "[10]", "result": 10.6, "unit": "%"}]}
